Assay results as given in PMC7768359, “Synthesis of Platinum(II) Complexes with Some 1-Methylnitropyrazoles and In Vitro Research on Their Cytotoxic Activity” (Pharmaceuticals, 2020).

Columns and labels:
[1] = Qualitative solubility in water; assay type: physicochemical
Experimental: A solution of 254 mg (2 mmol) of 1-methyl-4-nitropyrazole in 15 mL of warm water was mixed with a solution of 415 mg (1 mmol) of K2PtCl4 in 5 mL of water. The reaction mixture was maintained in darkness at 25 °C and monitored periodically by TLC until the absence of free ligand (app. 3 weeks). Then, the yellow precipitate was filtered off and dried, giving 480 mg (92%) of the crude mixture, which mainly consisted of two individual Pt complexes (TLC). […] Combustion and spectral analyses for the cis complex 1: Elemental analysis for formula C8H10N6O4Cl2Pt of compound 1: Calculated/Found (%): C 18.47/18.80, H 1.94/1.89, N 16.16/15.97, Cl 13.63/13.70. ^1H NMR (300.15 MHz, acetone-d6): δ[ppm] […] Combustion and spectral analyses for the trans complex 2: Elemental analysis for formula C8H10N6O4Cl2Pt of the trans-complex 2: Calculated/Found (%): C 18.47/18.76, H 1.94/1.84, N 16.16/15.86, Cl 13.63/13.93. ^1H NMR (300.15 MHz, acetone-d6): δ[ppm] […] Analysis of Mass Spectrum (ESI-MS) of both complexes 1 and 2: The calculated value of the parent peak mass for the formula C8H10N6O4Cl2Pt was 518.9789 u.

[2] = test system: BALB/3T3 (murine embryonic fibroblast); assay: In vitro cytotoxicity, sulforhodamine B assay, normal cells; assay type: cell-based; settings: for IC50: BALB/3T3 normal cells, normoxia, 72 h
Experimental: Determination of the cytotoxic activity of compounds tested was performed separately in the normoxia or hypoxia conditions to reveal their potentially bioreductive properties. The experiment was carried out on three human cancer cell lines: MCF-7 breast, ES-2 ovarian and A549 lung adenocarcinoma as well as normal murine embryonic fibroblast BALB/3T3 cell line. In order to facilitate the preparation of solutions of the tested compounds, their initial solutions for dilution were made by dissolving the compounds in acetone.
All cell lines were exposed to each compound tested at four different concentrations for 72 h. […] Additionally, all cell lines were exposed to acetone (Avantor Performance Materials, Gliwice, Poland) (the solvent used for tested compounds) at concentrations corresponding to those present in tested compounds’ dilutions.
After 72 h of cell incubation with the compounds tested, the sulforhodamine B (SRB) assay was performed as described by Shekan et al. with minor modifications. The cells were fixed in situ by adding 50 µL per well of cold 50% trichloroacetic acid (Avantor Performance Materials, Gliwice, Poland) and were incubated at 4 °C for one hour. Following that, wells were washed five times with water and air dried. Next, 50 µL of 0.4% solution of sulforhodamine B (Sigma-Aldrich, Steinheim, Germany) in 1% acetic acid (Avantor Performance Materials, Gliwice, Poland) were added to each well and plates were incubated at room temperature for 0.5 h. After incubation time, the unbound dye was removed by washing plates five times with 1% acetic acid, whereas stains bound to cells was solubilized with 10 mM Tris base (Sigma-Aldrich, Steinheim, Germany). The absorbance of each solution was read by the Multiskan RC photometer (Labsystems Diagnostics Oy, Vantaa, Finland) at a 540 nm wavelength. […] IC50 values were calculated for each experiment on the basis of four different concentrations using Cheburator software, as described by Nevozhay. The tested compounds at each concentration were tested in triplicates in a single experiment and each experiment was repeated at least three times independently.

Cn1cc([N+](=O)[O-])c[n+]1[Pt@SP2-2]([Cl])([Cl])[n+]1cc([N+](=O)[O-])cn1C [Compound 1, cis-dichloridobis(1-methyl-4-nitropyrazole)platinum(II)]
solubility in water [1]: poorly in water
IC50 [2]: > 100 µM

Cn1cc([N+](=O)[O-])c[n+]1[Pt@SP3-2]([Cl])([Cl])[n+]1cc([N+](=O)[O-])cn1C [Compound 2, trans-dichloridobis(1-methyl-4-nitropyrazole)platinum(II)]
solubility in water [1]: very poorly in water
IC50 [2]: 8.19 ± 2.9 µM
selectivity index (SI; ratio of cytotoxic concentration for healthy cells to that for cancer cells) ([2]; BALB/3T3 vs MCF-7, ES-2, A549, range): 2.2–11.7

Cn1c([N+](=O)[O-])cc[n+]1[Pt@SP2-2]([Cl])([Cl])[n+]1ccc([N+](=O)[O-])n1C [Compound 3, cis-dichloridobis(1-methyl-5-nitropyrazole)platinum(II)]
IC50 [2]: > 100 µM

Cn1c([N+](=O)[O-])cc[n+]1[Pt@SP3-2]([Cl])([Cl])[n+]1ccc([N+](=O)[O-])n1C [Compound 4, trans-dichloridobis(1-methyl-5-nitropyrazole)platinum(II)]
IC50 [2]: 74.4 ± 23.2 µM
